The supplement of paper PMC11061612

Tests used:
Assay in all cases: Bliss excess, mean over the matrix (fraction); higher = more synergy
KP-N-YN (Neuroblastoma) = system: KP-N-YN (Neuroblastoma)
Summary of the method: (§1)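 Cell lines in DMEM/F12 or RPMI with 10% FBS were plated in 1536-well plates, held 24 hours at 37°C, 5% CO2, then given two-drug dose matrices for 72 hours (DMSO typically 0.2%). Viability was read by CellTiter-Glo 2.0 luminescence and scaled as inhibition from 0 (vehicle wells) to 1 (blank wells). Combination Emax is the second-highest inhibition in the matrix; Bliss excess is observed combination effect minus expected EA + EB − EA·EB, EA and EB being single-agent effects.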

5637 (Bladder Carcinoma) = system: 5637 (Bladder Carcinoma)
Summary of the method: as §1

HCC70 (Breast Carcinoma) = system: HCC70 (Breast Carcinoma)
Summary of the method: as §1

A101D (Melanoma) = system: A101D (Melanoma)
Summary of the method: as §1

RH-41 (Rhabdomyosarcoma) = system: RH-41 (Rhabdomyosarcoma)
Summary of the method: as §1

COLO-792 (Melanoma) = system: COLO-792 (Melanoma)
Summary of the method: as §1

[1] = system: A253 (Head and Neck Carcinoma)
Summary of the method: as §1

[2] = system: G-402 (Other Solid Carcinomas)
Summary of the method: as §1

[3] = system: HCC1428 (Breast Carcinoma)
Summary of the method: as §1

[4] = system: CAL-27 (Oral Cavity Carcinoma)
Summary of the method: as §1

[5] = system: JHU-022 (Oral Cavity Carcinoma)
Summary of the method: as §1

[6] = system: CGTH-W-1 (Thyroid Gland Carcinoma)
Summary of the method: as §1

[7] = system: SK-HEP-1 (Hepatocellular Carcinoma)
Summary of the method: as §1

[8] = system: LU-165 (Small Cell Lung Carcinoma)
Summary of the method: as §1

[9] = system: NCI-H1651 (Lung Adenocarcinoma)
Summary of the method: as §1

[10] = system: NCI-H2087 (Lung Adenocarcinoma)
Summary of the method: as §1

[11] = system: ESO26 (Esophageal Adenocarcinoma)
Summary of the method: as §1

EW-7 (Ewing's Sarcoma) = system: EW-7 (Ewing's Sarcoma)
Summary of the method: as §1

[12] = system: CA46 (Burkitt's Lymphoma)
Summary of the method: as §1

IM-9 (Non-Cancerous) = system: IM-9 (Non-Cancerous)
Summary of the method: as §1

| Compound | Bliss excess (KP-N-YN (Neuroblastoma)) | Bliss excess (5637 (Bladder Carcinoma)) | Bliss excess (HCC70 (Breast Carcinoma)) | Bliss excess (A101D (Melanoma)) | Bliss excess (RH-41 (Rhabdomyosarcoma)) | Bliss excess (COLO-792 (Melanoma)) | Bliss excess [1] | Bliss excess [2] | Bliss excess [3] | Bliss excess [4] | Bliss excess [5] | Bliss excess [6] | Bliss excess [7] | Bliss excess [8] | Bliss excess [9] | Bliss excess [10] | Bliss excess [11] | Bliss excess (EW-7 (Ewing's Sarcoma)) | Bliss excess [12] | Bliss excess (IM-9 (Non-Cancerous)) |
| --- | --- | --- | --- | --- | --- | --- | --- | --- | --- | --- | --- | --- | --- | --- | --- | --- | --- | --- | --- | --- |
| COc1nnc2ccc(N3CCC(c4ccc(OCCN5CCN(C)C(=O)[C@H]5C)cc4)CC3)nn12 [AZD5153] + Cc1c2c(nn1C)CSCc1cc(n(C)n1)CSc1cc(c3ccccc3c1)OCCCc1c(C(=O)O)n(C)c3c-2c(Cl)ccc13 [AZD5991] (first compound max 1 µM, 7x7, partner max 1 µM) | -0.0362 | -0.0555 | 0.0638 | 0.0406 | 0.012 | 0.0196 | 0.0071 | 0.044 | -0.0587 | -0.056 | -0.0703 | -0.025 | -0.085 | -0.0173 | -0.0273 | -0.0328 | -0.0071 | 0.07 | -0.0502 | -0.127 |
| CN(C)CCCOc1ccc(-c2ccc3ncc4c(c3c2)n(C2CCOCC2)c(=O)n4C)cn1 [AZD0156] + C=CCn1c(=O)c2cnc(Nc3ccc(N4CCN(C)CC4)cc3)nc2n1-c1cccc(C(C)(C)O)n1 [AZD1775] (first compound max 1 µM, partner max 1 µM) | -0.0161 | -0.0851 | -0.0682 | -0.0616 | -0.0175 | -0.017 | -0.0389 | -0.0501 | -0.115 | -0.0539 | -0.0446 | -0.033 | -0.0574 | -0.118 | -0.0046 | -0.071 | -0.0322 | 0.039 | -0.0283 | 0.007 |
| COc1cccc(OCCCN)c1-c1cc(Nc2cnc(C#N)cn2)n[nH]1 [Prexasertib] + C=CCn1c(=O)c2cnc(Nc3ccc(N4CCN(C)CC4)cc3)nc2n1-c1cccc(C(C)(C)O)n1 [AZD1775] (first compound max 1 µM, partner max 1 µM) | 0.0385 | 0.0167 | 0.0723 | 0.0932 | 0.0677 | 0.0236 | 0.0877 | 0.0504 | 0.138 | 0.0945 | 0.0861 | 0.0632 | 0.0775 | -0.0566 | 0.0428 | 0.0576 | 0.0278 | 0.0157 | 0.0924 | 0.0644 |
| Cc1c2c(nn1C)CSCc1cc(n(C)n1)CSc1cc(c3ccccc3c1)OCCCc1c(C(=O)O)n(C)c3c-2c(Cl)ccc13 [AZD5991] + C[C@@H]1COCCN1C2=NC(=NC(=C2)C3(CC3)[S@](=N)(=O)C)C4=C5C=CNC5=NC=C4 [AZD6738] (first compound max 1 µM, 7x7, partner max 10 µM) | -0.0067 | 0.0305 | -0.0069 | 0.0342 | 0.014 | 0.0026 | 0.0364 | 0.0386 | -0.0045 | 0.0358 | -0.0118 | 0.0117 | 0.0225 | 0.0012 | 0.0192 | -0.0396 | 0.0276 | 0.0266 | -0.0252 | -0.0532 |
| Cc1c2c(nn1C)CSCc1cc(n(C)n1)CSc1cc(c3ccccc3c1)OCCCc1c(C(=O)O)n(C)c3c-2c(Cl)ccc13 [AZD5991] + Cc1cc2ncnn2cc1Nc1ncc2c(n1)n(C1CCOCC1)c(=O)n2C [AZD7648] (first compound max 1 µM, 7x7, partner max 10 µM) | -0.0516 | -0.0232 | -0.052 | -0.0897 | -0.0443 | 0.0234 | -0.0286 | 0.0229 | 0.0018 | -0.057 | -0.028 | -0.0214 | -0.0463 | 0.0045 | 0.0096 | -0.0221 | -0.0372 | -0.0105 | 0.0187 | 0.014 |
| COc1cccc(OCCCN)c1-c1cc(Nc2cnc(C#N)cn2)n[nH]1 [Prexasertib] + CN(C)CCCOc1ccc(-c2ccc3ncc4c(c3c2)n(C2CCOCC2)c(=O)n4C)cn1 [AZD0156] (first compound max 1 µM, 7x7, partner max 1 µM) | 0.0202 | -0.0174 | -0.0319 | 0.0419 | -0.0209 | -0.0447 | -0.0379 | 0.0003 | -0.0703 | -0.0014 | -0.0231 | -0.0614 | -0.0206 | -0.0723 | -0.107 | -0.0405 | 0.0207 | 0.025 | 0.0713 | -0.0022 |
| Cn1cnc2c(F)c(Nc3ccc(Br)cc3Cl)c(C(=O)NOCCO)cc21 [Selumetinib] + C[C@@H]1COCCN1C2=NC(=NC(=C2)C3(CC3)[S@](=N)(=O)C)C4=C5C=CNC5=NC=C4 [AZD6738] (first compound max 10 µM, 7x7, partner max 10 µM) | -0.0431 | 0.0382 | 0.0731 | -0.0548 | -0.0004 | 0.0362 | -0.0229 | -0.0353 | -0.0527 | 0.0939 | -0.0175 | -0.0232 | -0.034 | -0.0284 | -0.0638 | -0.0057 | -0.0189 | 0.0112 | -0.0159 | -0.0817 |
